In US4842845A, “Radioactive metal chelates for dipyridoxyl phosphate” (Salutar, Inc., priority 1987, dated 1989):

Experiment: Potentiometric titration of DPDP (pH 11.2 to 2.0), protonation sites
Format: physicochemical
Details: at a pH of 3 and above
Experimental: The compound DPDP was studied potentiometrically from pH 11.2 to 2.0. Data sets were collected on a custom-built automatic potentiometric titration apparatus composed of a METROHM 655 DOSIMAT automatic buret, a FISHER ACCUMET pH meter with a CORNING calomel combination electrode, a custom-blown water jacketed titration cell, a BRINKMAN LAUDA K-2/R constant temperature bath and a COMMODORE 64 computer. […] Data analysis was performed on an IBM-AT computer using the least squares program, BETA (Harris, W. et al, supra), and the data analysis program, HANDNBAR (Harris, W. et al, supra). […] All solutions were made from distilled, deionized water that was further purified on a MILLI-Q cartridge system, degassed, and then kept under an atmosphere of argon which had been scrubbed for CO2 and O2.

In the case of Cc1ncc(COP(=O)(O)O)c(CN(CCN(CC(=O)O)Cc2c(COP(=O)(O)O)cnc(C)c2O)CC(=O)O)c1O [DPDP, N,N'-bis-(pyridoxal-5-phosphate)-ethylenediamine-N,N'-diacetic acid], the “Protonation / charge state of the ligand (dissociation constants assigned to the protonation sites)” value is reported as “anionic and possesses deprotonated metal binding sites”.
